Test results from patent US9873709B2 (priority 2013, dated 2018).
Where a name gives a salt, the structure may show the parent alone.

System: JAK1-dependent STAT6 phosphorylation downstream of IL-13 stimulation in TF-1 human erythroleukemia cells
Test: cells
Conditions: TF-1, read-out: IL-13-pSTAT6 IC50

Structure (SMILES)	IC50
CCOC(=O)N1CC=C(c2cccn3nc(Nc4ccc(C(=O)NCc5cncc(C)c5)cc4)nc23)CC1 [Example 2-178, ethyl 4-[2-[4-[(5-methyl-3-pyridyl)methylcarbamoyl]anilino]-[1,2,4]triazolo[1,5-a]pyridin-8-yl]-3,6-dihydro-2H-pyridine-1-carboxylate]	32.6 nM
CC(C)C(=O)N1CC=C(c2cccn3nc(Nc4ccc(C(=O)N(C)C5CCN(C)CC5)cc4)nc23)CC1 [Example 2-410, N-methyl-N-(1-methyl-4-piperidyl)-4-[[8-[1-(2-methylpropanoyl)-3,6-dihydro-2H-pyridin-4-yl]-[1,2,4]triazolo[1,5-a]pyridin-2-yl]amino]benzamide]	130 nM
CCOC(=O)N1CC=C(c2cccn3nc(Nc4ccc(C(=O)N5CC(N)C5)cc4)nc23)CC1 [Example 2-74, ethyl 4-[2-[4-(3-aminoazetidine-1-carbonyl)anilino]-[1,2,4]triazolo[1,5-a]pyridin-8-yl]-3,6-dihydro-2H-pyridine-1-carboxylate]	18.9 nM
CCCN1CCC(N(C(=O)c2ccc(Nc3nc4c(C5=CCN(C(=O)CCC(F)(F)F)CC5)cccn4n3)cc2)C2CC2)CC1 [Example 2-400, N-cyclopropyl-N-(1-propyl-4-piperidyl)-4-[[8-[1-(4,4,4-trifluorobutanoyl)-3,6-dihydro-2H-pyridin-4-yl]-[1,2,4]triazolo[1,5-a]pyridin-2-yl]amino]benzamide]	6.8 nM
O=C(CCC(F)(F)F)N1CC=C(c2cccn3nc(Nc4ccc(C(=O)N5CCCC(N6CCOCC6)C5)cc4)nc23)CC1 (centres unmarked) [Example 2-339, 4,4,4-trifluoro-1-[4-[2-[4-(3-morpholinopiperidine-1-carbonyl)anilino]-[1,2,4]triazolo[1,5-a]pyridin-8-yl]-3,6-dihydro-2H-pyridin-1-yl]butan-1-one]	9.8 nM
CC(CC(=O)N1CC=C(c2cccn3nc(Nc4ccc(C(=O)N(C)C5CCN(C)CC5)cc4)nc23)CC1)C(F)(F)F (centres unmarked) [Example 2-43, N-methyl-N-(1-methyl-4-piperidyl)-4-[[8-[1-(4,4,4-trifluoro-3-methyl-butanoyl)-3,6-dihydro-2H-pyridin-4-yl]-[1,2,4]triazolo[1,5-a]pyridin-2-yl]amino]benzamide]	27.8 nM
CN1CCC(N(C)C(=O)c2ccc(Nc3nc4c(C5=CCN(Cc6ccccc6)CC5)cccn4n3)cc2)CC1 [Example 2-8, 4-[[8-(1-benzyl-3,6-dihydro-2H-pyridin-4-yl)-[1,2,4]triazolo[1,5-a]pyridin-2-yl]amino]-N-methyl-N-(1-methyl-4-piperidyl)benzamide; hydrochloride]	849 nM
CCOC(=O)N1CC=C(c2cccn3nc(Nc4ccc(C(=O)N5CCCC(O)(CN6CCCC6)CC5)cc4)nc23)CC1 (centres unmarked) [Example 2-241, ethyl 4-[2-[4-[4-hydroxy-4-(pyrrolidin-1-ylmethyl)azepane-1-carbonyl]anilino]-[1,2,4]triazolo[1,5-a]pyridin-8-yl]-3,6-dihydro-2H-pyridine-1-carboxylate]	63.7 nM
O=C(c1ccc(Nc2nc3c(N4CCC(O)(c5ccc(Cl)cc5)CC4)cccn3n2)cc1)N1CC2CNCC2C1 (centres unmarked) [Example 1-197, 2,3,3a,4,6,6a-hexahydro-1H-pyrrolo[3,4-c]pyrrol-5-yl-[4-[[8-[4-(4-chlorophenyl)-4-hydroxy-1-piperidyl]-[1,2,4]triazolo[1,5-a]pyridin-2-yl]amino]phenyl] methanone]	158 nM
CN(C)C(=O)C1CN(C(=O)c2ccc(Nc3nc4c(C5=CCN(C(=O)CCC(F)(F)F)CC5)cccn4n3)cc2)CCN1C (centres unmarked) [Example 2-325, N,N,1-trimethyl-4-[4-[[8-[1-(4,4,4-trifluorobutanoyl)-3,6-dihydro-2H-pyridin-4-yl]-[1,2,4]triazolo[1,5-a]pyridin-2-yl]amino]benzoyl] piperazine-2-carboxamide]	191 nM
O=C(CCC(F)(F)F)N1CC=C(c2cccn3nc(Nc4ccc(C(=O)N5CCN(C6CCCCC6)CC5)cc4)nc23)CC1 [Example 2-329, 1-[4-[2-[4-(4-cyclohexylpiperazine-1-carbonyl)anilino]-[1,2,4]triazolo[1,5-a]pyridin-8-yl]-3,6-dihydro-2H-pyridin-1-yl]-4,4,4-trifluoro-butan-1-one]	8.3 nM
CCOC(=O)N1CC=C(c2cccn3nc(Nc4ccc(C(=O)NCC5CCCCN5)cc4)nc23)CC1 (centres unmarked) [Example 2-114, ethyl 4-[2-[4-(2-piperidylmethylcarbamoyl)anilino]-[1,2,4]triazolo[1,5-a]pyridin-8-yl]-3,6-dihydro-2H-pyridine-1-carboxylate]	69.2 nM
CCOC(=O)N1CC=C(c2cccn3nc(Nc4ccc(C(=O)N[C@H]5[C@@H]6CNC[C@@H]65)cc4)nc23)CC1 [Example 2-434, ethyl 4-[2-[4-[[(1S,5R)-3-azabicyclo[3.10]hexan-6-yl]carbamoyl]anilino]-[1,2,4]triazolo[1,5-a]pyridin-8-yl]-3,6-dihydro-2H-pyridine-1-carboxylate]	232 nM
O=C(CCC(F)(F)F)N1CC=C(c2cccn3nc(Nc4ccc(C(=O)N5C[C@H]6CN[C@H]6C5)cc4)nc23)CC1 [Example 2-449, 1-[4-[2-[4-[(1R,5R)-3,6-diazabicyclo[3.2.0]heptane-3-carbonyl]anilino]-[1,2,4]triazolo[1,5-a]pyridin-8-yl]-3,6-dihydro-2H-pyridin-1-yl]-4,4,4-trifluoro-butan-1-one]	355 nM
O=C(CCC(F)(F)F)N1CC=C(c2cccn3nc(Nc4ccc(C(=O)N5CC6(CCNC6)C5)cc4)nc23)CC1 [Example 2-35, 1-[4-[2-[4-(2,7-diazaspiro[3.4]octane-2-carbonyl)anilino]-[1,2,4]triazolo[1,5-a]pyridin-8-yl]-3,6-dihydro-2H-pyridin-1-yl]-4,4,4-trifluoro-butan-1-one]	95 nM
CN1CCN(C2CCN(C(=O)c3ccc(Nc4nc5c(C6=CCN(C(=O)CCC(F)(F)F)CC6)cccn5n4)cc3)CC2)CC1 [Example 2-393, 4,4,4-trifluoro-1-[4-[2-[4-[4-(4-methylpiperazin-1-yl)piperidine-1-carbonyl]anilino]-[1,2,4]triazolo[1,5-a]pyridin-8-yl]-3,6-dihydro-2H-pyridin-1-yl]butan-1-one]	23.4 nM
CN1CCN(C(=O)C2CCN(C(=O)c3ccc(Nc4nc5c(N6CCC(O)(c7ccc(Cl)cc7)CC6)cccn5n4)cc3)CC2)CC1 [Example 1-113, [4-[[8-[4-(4-chlorophenyl)-4-hydroxy-1-piperidyl]-[1,2,4]triazolo[1,5-a]pyridin-2-yl]amino]phenyl]-[4-(4-methylpiperazine-1-carbonyl)-1-piperidyl]methanone]	26.7 nM
CN(C)C(=O)C1(c2ccncc2)CCCN1C(=O)c1ccc(Nc2nc3c(N4CCC(O)(c5ccc(Cl)cc5)CC4)cccn3n2)cc1 (centres unmarked) [Example 1-74, 1-[4-[[8-[4-(4-chlorophenyl)-4-hydroxy-1-piperidyl]-[1,2,4]triazolo[1,5-a]-pyridin-2-yl]amino]benzoyl]-N,N-dimethyl-2-(4-pyridyl)pyrrolidine-2-carboxamide]	33.5 nM
O=C(CCC(F)(F)F)N1CC=C(c2cccn3nc(Nc4ccc(C(=O)N5CCC(Cc6cccnc6)C5)cc4)nc23)CC1 (centres unmarked) [Example 2-405, 4,4,4-trifluoro-1-[4-[2-[4-[3-(3-pyridylmethyl)pyrrolidine-1-carbonyl]anilino]-[1,2,4]triazolo[1,5-a]pyridin-8-yl]-3,6-dihydro-2H-pyridin-1-yl]butan-one]	7.5 nM
CCOC(=O)N1CC=C(c2cccn3nc(Nc4ccc(C(=O)NCC5CCCNC5)cc4)nc23)CC1 (centres unmarked) [Example 2-427, ethyl 4-[2-[4-(3-piperidylmethylcarbamoyl)anilino]-[1,2,4]triazolo[1,5-a]pyridin-8-yl]-3,6-dihydro-2H-pyridine-1-carboxylate]	215 nM
O=C(CCC(F)(F)F)N1CC=C(c2cccn3nc(Nc4ccc(C(=O)N5CCCC56CCNCC6)cc4)nc23)CC1 [Example 2-258, 1-[4-[2-[4-(1,8-diazaspiro[4.5]decane-1-carbonyl)anilino]-[1,2,4]triazolo[1,5-a]pyridin-8-yl]-3,6-dihydro-2H-pyridin-1-yl]-4,4,4-trifluoro-butan-1-one]	238 nM
CN1CCC(N(C(=O)c2ccc(Nc3nc4c(C5=CCN(C(=O)CCC(F)(F)F)CC5)cccn4n3)cc2)C2CC2)CC1 [Example 2-150, N-cyclopropyl-N-(1-methyl-4-piperidyl)-4-[[8-[1-(4,4,4-trifluorobutanoyl)-3,6-dihydro-2H-pyridin-4-yl]-[1,2,4]triazolo[1,5-a]pyridin-2-yl]amino]benzamide]	8.3 nM
CN1CCC(CCNC(=O)c2ccc(Nc3nc4c(C5=CCN(C(=O)CCC(F)(F)F)CC5)cccn4n3)cc2)CC1 [Example 2-274, N-[2-(1-methyl-4-piperidyl)ethyl]-4-[[8-[1-(4,4,4-trifluorobutanoyl)-3,6-dihydro-2H-pyridin-4-yl]-[1,2,4]triazolo[1,5-a]pyridin-2-yl]amino]benzamide]	45 nM
CN1CCC(N(C)C(=O)c2ccc(Nc3nc4c(C5=CCN(C(=O)OCC#N)CC5)cccn4n3)cc2)CC1 [Example 2-7, cyanomethyl 4-[2-[4-[methyl-(1-methyl-4-piperidyl)carbamoyl]anilino]-[1,2,4]triazolo[1,5-a]pyridin-8-yl]-3,6-dihydro-2H-pyridine-1-carboxylate]	42.9 nM
O=C(CCC(F)(F)F)N1CC=C(c2cccn3nc(Nc4ccc(C(=O)N5CCC6(CCCNC6)CC5)cc4)nc23)CC1 [Example 2-191, 1-[4-[2-[4-(2,9-diazaspiro[5.5]undecane-9-carbonyl)anilino]-[1,2,4]triazolo[1,5-a]pyridin-8-yl]-3,6-dihydro-2H-pyridin-1-yl]-4,4,4-trifluoro-butan-1-one]	63.7 nM
CC(C)(CN1CCOCC1)NC(=O)c1ccc(Nc2nc3c(C4=CCN(C(=O)CCC(F)(F)F)CC4)cccn3n2)cc1 [Example 2-333, N-(1,1-dimethyl-2-morpholino-ethyl)-4-[[8-[1-(4,4,4-trifluorobutanoyl)-3,6-dihydro-2H-pyridin-4-yl]-[1,2,4]triazolo[1,5-a]pyridin-2-yl]amino]benzamide]	5.5 nM
